# Assays:
# Format in all cases: in vivo
# corn [1] = assay: Example 21, Procedure II: Herbicide No. 1 + SUTAN PLUS (butylate + antidote) with antidotes
# Method: (§1) Containers were filled and compacted with a fumigated silt loam top soil to a depth of about 1.3 cm from the top of the container. A first container was designated as an untreated control, a second container was designated as a herbicide control, and a third container was designated as a herbicide + antidote test container. Each of the containers was seeded with a crop species. A measured amount of herbicide dispersed or dissolved in acetone was applied to a measured quantity of soil. To this same quantity of soil treated with herbicide, there was added a measured amount of antidote dispersed or dissolved in acetone. The quantity of soil treated with the herbicide and antidote was thoroughly mixed to incorporate the herbicide and antidote in the soil uniformly. The seed bed in the third container of soil was covered with the soil treated with the herbicide and antidote and the container was leveled. For each test series, the seed beds of the first and second containers were likewise covered by soil layers. the cover layer of the first container was not treated with herbicide or antidote.
# (§2) The containers were then placed on a bench in a greenhouse and sub-irrigated as required for the duration of the test. […] Plant response is measured in terms of percent injury. Antidote efficacy is indicated as the difference in plant injury by the herbicide(s) without the antidote and with the antidote.
# (§3) This procedure is the same as Procedure I, but modified in the manner that after incorporation of the chemicals (herbicide and antidote) the containers with the covered seedbed were treated with an initial overhead irrigation equivalent to 0.6 cm rainfall, then subsequently sub-irrigated as required on greenhouse benches.
# In this example, tests were conducted as in the preceding Examples 18-20, except here the co-herbicidal component was SUTAN® PLUS, a commercial product comprising as the active herbicidal ingredient the compound butylate (Herbicide No. 10) and an antidote […] (Antidote No. 1). Again, the antidotal compounds herein were Nos. 1, 2, 7, 13 and 15. Procedure II was used.
# corn [2] = assay: Example 18, Procedure II: Herbicide No. 1 + ERADICANE (EPTC + R-25788) with auxiliary antidotes
# Method: as §1, §2, §3
# In the test reported in this example, the herbicidal composition was similar to that used in Example 16 in that Herbicide No. 1 was combined with EPTC (Herbicide No. 4) as a co-herbicide and the antidotes included Nos. 1, 2, 7, 13 and 15. However, in this test the EPTC was introduced as a formulation of ERADICANE (EPTC + the antidote R-25788, i.e., Antidote No. 1) at an application rate of 8.96 kg/ha. Thus, in this test two antidotes were present, viz. R-25788 and one of the auxilliary antidotes, No. 2, 13 and 15.
# Test procedures were those of Procedure II above.
# [3] = tested on: velvetleaf (Abutilon theophrasti); assay: Example 24, Procedure II: Herbicide No. 1 + co-herbicides Nos. 4, 6, 7, 12 with Antidote Nos. 15 and 17-21
# Procedure, shortened: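 Greenhouse pots, herbicide No. 1 plus co-herbicides and antidote in acetone incorporated into silt loam soil covering the corn seed bed, with giant foxtail and velvetleaf; initial overhead irrigation equal to 0.6 cm rainfall, then sub-irrigation. Antidote at 2.24 kg/ha; percent injury read 13 days after application, duplicate average.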
# [4] = Herbicide No.1 0.56 kg/ha alone
# [5] = Herbicide No.1 1.12 kg/ha alone
# [6] = Herb. No. 1 0.07 Kg/ha + Co-Herb. No. 4 1.12 Kg/ha + antidote 2.24 Kg/ha
# [7] = Herb. No. 1 0.07 Kg/ha + Co-Herb. No. 6 0.14 Kg/ha + antidote 2.24 Kg/ha
# [8] = Herb. No. 1 0.07 Kg/ha + Co-Herb. No. 7 0.28 Kg/ha + antidote 2.24 Kg/ha
# [9] = Herb. No. 1 0.07 Kg/ha + Co-Herb. No. 12 0.28 Kg/ha + antidote 2.24 Kg/ha
# [10] = Herb. No. 1 0.14 Kg/ha + Co-Herb. No. 4 1.12 Kg/ha + antidote 2.24 Kg/ha
# [11] = Herb. No. 1 0.14 Kg/ha + Co-Herb. No. 6 0.14 Kg/ha + antidote 2.24 Kg/ha
# [12] = Herb. No. 1 0.14 Kg/ha + Co-Herb. No. 7 0.28 Kg/ha + antidote 2.24 Kg/ha
# [13] = Herb. No. 1 0.14 Kg/ha + Co-Herb. No. 12 0.28 Kg/ha + antidote 2.24 Kg/ha
# [14] = Herb. No. 1 0.28 Kg/ha + Co-Herb. No. 4 1.12 Kg/ha + antidote 2.24 Kg/ha
# [15] = Herb. No. 1 0.28 Kg/ha + Co-Herb. No. 6 0.14 Kg/ha + antidote 2.24 Kg/ha
# [16] = Herb. No. 1 0.28 Kg/ha + Co-Herb. No. 7 0.28 Kg/ha + antidote 2.24 Kg/ha
# [17] = Herb. No. 1 0.28 Kg/ha + Co-Herb. No. 12 0.28 Kg/ha + antidote 2.24 Kg/ha
# [18] = Herb. No. 1 0.56 Kg/ha + Co-Herb. No. 4 1.12 Kg/ha + antidote 2.24 Kg/ha
# [19] = Herb. No. 1 0.56 Kg/ha + Co-Herb. No. 6 0.14 Kg/ha + antidote 2.24 Kg/ha
# [20] = Herb. No. 1 0.56 Kg/ha + Co-Herb. No. 7 0.28 Kg/ha + antidote 2.24 Kg/ha
# [21] = Herb. No. 1 0.56 Kg/ha + Co-Herb. No. 12 0.28 Kg/ha + antidote 2.24 Kg/ha
Compound,"% Inhibition VL [3, 6] [%]","% Inhibition VL [3, 7] [%]","% Inhibition VL [3, 8] [%]","% Inhibition VL [3, 9] [%]","% Inhibition VL [3, 10] [%]","% Inhibition VL [3, 11] [%]","% Inhibition VL [3, 12] [%]","% Inhibition VL [3, 13] [%]","% Inhibition VL [3, 14] [%]","% Inhibition VL [3, 15] [%]","% Inhibition VL [3, 16] [%]","% Inhibition VL [3, 17] [%]","% Inhibition VL [3, 18] [%]","% Inhibition VL [3, 19] [%]","% Inhibition VL [3, 20] [%]","% Inhibition VL [3, 21] [%]",other results
COC(=O)c1c(Cl)nn(C)c1S(=O)(=O)NC(=O)Nc1nc(OC)cc(OC)n1 [No.1],–,–,–,–,–,–,–,–,–,–,–,–,–,–,–,–,"% Injury Corn (corn [1]; Herbicide No.1 0.56 kg/ha + SUTAN + 8.96 kg/ha, no added antidote): 10%; % Injury Corn (corn [1]; [4]): 0%; % Injury Corn (corn [1]; Herbicide No.1 1.12 kg/ha + SUTAN + 8.96 kg/ha, no added antidote): 5%; % Injury Corn (corn [1]; [5]): 30%; % Injury Corn (corn [2]; Herbicide No.1 0.56 kg/ha + ERADICANE 8.96 kg/ha, no added antidote): 25%; % Injury Corn (corn [2]; [4]): 30%; % Injury Corn (corn [2]; Herbicide No.1 1.12 kg/ha + ERADICANE 8.96 kg/ha, no added antidote): 20%; % Injury Corn (corn [2]; [5]): 25%"
O=C(O)COC(c1ccccc1)c1ccccc1 [compound 19],90,90,90,85,95,95,90,85,95,95,95,95,90,99,98,99,–
O=C(O)COC(c1ccccc1)c1ccccc1 [compound 18],90,90,90,80,95,95,95,99,95,95,95,95,90,98,98,95,–
CC1COc2ccccc2N1C(=O)C(Cl)Cl (stereo not shown) [compound 17],90,90,85,90,90,90,95,98,90,95,98,98,95,98,98,95,–
COC(=O)COC(c1ccccc1)c1ccccc1 [compound 20],90,95,95,90,90,90,90,95,90,98,95,98,95,95,95,98,–
CCSC(=O)COC(c1ccccc1)c1ccccc1 [compound 21],90,85,95,90,90,90,90,95,95,95,95,98,90,98,98,98,–
